Patent US12435080B2, “sGC stimulators” (Tisento Therapeutics Inc., priority 2016, dated 2025)

Key:
sGC = target: T1, sGC (Rattus norvegicus, UniProt P20595); experiment: cGMP neuronal cell-based assay; details: rat primary hippocampal neurons; 30 μM DETA-NO; cGMP by LC-MS/MS; normalized to 10 μM Compound Y; compounds in Table IA; read-out: sGC-neuron Abs EC50
T1 construct: Rat primary neurons were isolated from fetuses of 18-day pregnant Sprague-Dawley females; endogenous in cells; host or cells: Primary rat hippocampal neurons (E18 Sprague-Dawley fetuses)
T1 sequence (P20595 1-619): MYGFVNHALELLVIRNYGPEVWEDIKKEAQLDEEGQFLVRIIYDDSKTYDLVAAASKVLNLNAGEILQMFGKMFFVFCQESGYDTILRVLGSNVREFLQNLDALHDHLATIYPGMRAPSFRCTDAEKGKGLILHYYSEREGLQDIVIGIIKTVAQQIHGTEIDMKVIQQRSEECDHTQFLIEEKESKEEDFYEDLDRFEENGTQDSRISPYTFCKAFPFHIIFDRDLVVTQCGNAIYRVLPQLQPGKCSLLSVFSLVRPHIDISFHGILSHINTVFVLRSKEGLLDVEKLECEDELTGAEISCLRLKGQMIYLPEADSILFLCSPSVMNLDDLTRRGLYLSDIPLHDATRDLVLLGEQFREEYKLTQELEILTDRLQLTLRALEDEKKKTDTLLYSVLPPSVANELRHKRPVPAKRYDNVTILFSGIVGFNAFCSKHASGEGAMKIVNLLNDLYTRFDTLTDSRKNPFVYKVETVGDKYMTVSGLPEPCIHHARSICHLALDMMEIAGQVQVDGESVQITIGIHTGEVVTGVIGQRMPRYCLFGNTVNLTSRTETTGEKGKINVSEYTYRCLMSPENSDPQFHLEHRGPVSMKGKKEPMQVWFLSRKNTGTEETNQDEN
Procedure: Rat primary neurons were isolated from fetuses of 18-day pregnant Sprague-Dawley females. The fetuses were collected in Hanks' balanced salt solution (HBSS) and brains were rapidly removed. The cerebral hippocampi were isolated and mechanically fragmented. Further tissue digestion was performed with 0.25% (wt/vol) trypsin solution in HBSS without Ca2+ and Mg2+ for 15 min at 37° C. After trypsination, cells were washed and resuspended in neurobasal medium supplemented with 0.5 mM L-glutamine, 12.5 uM glutamic acid, 2% B-27 and 100U/mL penicillin, and 100 μg/mL streptomycin. Cells were plated at a density of 4×10^4 cells/well in a poly-D-lysine coated 384-well flat clear-bottom plate (Corning Cat No 354662). Cells were incubated 6-7 days at 37° C. in a humidified chamber with 5% CO2. Media was removed and cells were washed 1× with HBSS containing Ca2+ and Mg2+, and replaced with 40 uL HBSS containing 0.5 mM IBMX, and incubated for 15 minutes at 37° C. 10 uL of a 5× stock of test compounds with diethylenetriamine NONOate (DETA-NO) was added. Final concentration of DETA-NO was 30 μM. Cells were incubated for 20 min at 37° C. Medium was removed, 50 uL of ice-cold 10% acetic acid was added, and incubated for 60 minutes at 4° C. Following centrifugation at 4° C. for 5 minutes at 1000×g to pellet cell debris, the supernatant was aspirated to a clean plate and the samples were analyzed for cGMP content. cGMP concentrations were determined from each sample using LC-MS/MS.
Data were normalized to a high control using the following equation: 100*(Sample−Low Control)/(High Control−Low Control), where the low control is the average of 15 samples treated with 1% DMSO, and the high control is the average of 15 samples treated with 10 μM of the known sGC stimulator Compound Y (depicted in Example 2). Data were fit using a 4-parameter fit (log(agonist) vs. response—variable slope) using GraphPad Prism Software v.5. n=2 for all compounds. The Absolute EC50 was interpolated from the curve fit and is defined as the concentration at which a given compound elicits 50% of the high control response after data normalization. Compounds failing to elicit a minimum response of 50% are reported as >30 μM. For compounds run in duplicate or n higher than 2, the result herein given is the geometric mean of the several results obtained.

[1] = Rat cerebrospinal fluid (CSF) pharmacokinetic properties; assay type: in vivo; details: compounds in Table IA; for concentration at 1 h: CSF, male Sprague-Dawley rats, PO 10 mg/kg in PEG400, 1 h post-dosing, read-out: CSF Conc. (nM @ 1 h); for Kp uu at 1 h: male, Sprague-Dawley, CSF and plasma (unbound), unbound CSF/unbound plasma ratio, rats, PO 10 mg/kg
Procedure: PK in rats was determined following oral dosing. For the oral (PO) experiments, a group of 6 male Sprague-Dawley rats with an indwelling catheter placed in the cisterna magna were used. The PO group was dosed with 3 or 10 mg/kg of a compound formulated as a solution in PEG400. PO doses were administered by oral gavage and delivered to the stomach using a syringe and gavage tube. Following oral dosage administration, the gavage tube was flushed with approximately 0.5 mL of water to ensure complete delivery of the full dose.
Plasma and CSF samples were collected as follows: samples of CSF and blood were collected at 1 hour and 2 hours post-dosing. CSF samples (0.05 mL) were collected through the intracisternal catheter. Blood samples (0.25 mL) were collected through retro-orbital sampling. These samples were kept on ice until processed for plasma. Blood samples were centrifuged at 3200 rpm for 5 minutes at approximately 5° C. within 1 hour of collection. Plasma was directly transferred to a 96-well plate tube (0.125 mL). Plug caps were placed on the tubes and the tubes frozen at approximately −70° C. and stored until analysis.
Plasma was collected and analyzed for the presence of compound.
The compound in question and the internal standard were extracted from plasma and CSF by precipitation. Samples were analyzed using liquid chromatography (LC) with tandem mass spectrometric detection (MS/MS) using electrospray ionization. The standard curve range was from 1 to 1000 ng/mL. Results of the compounds described herein in this assay are illustrated in Tables 4A (for compounds in Table IA) and 4B (for compounds in Table IB) below.
Kp,uu is defined as the concentration ratio of unbound drug in CSF to unbound drug in plasma. Unbound drug in plasma (or free plasma concentration) is calculated by multiplying the total plasma concentration by the unbound fraction as determined by plasma protein binding. The CSF concentration is then divided by the free plasma concentration to determine the Kp,uu. (See e.g., Di et al., J. Med. Chem., 56, 2-12 (2013))

SMILES	EC50 (sGC)	concentration at 1 h [1]	Kp uu at 1 h [1]
Cc1ncc(Cn2nc(-c3nc(C(F)(F)F)n[nH]3)c3ccccc32)cn1 [Compound I-62, 1-((2-methylpyrimidin-5-yl)methyl)-3-(3-(trifluoromethyl)-1H-1,2,4-triazol-5-yl)-1H-indazole]	≤ 0.1 µM	83 nM	0.62
Fc1cccc(Cn2nc(-c3nc(C(F)(F)F)n[nH]3)c3cccnc32)c1F [Compound I-48, 1-(2,3-Difluorobenzyl)-3-(3-(trifluoromethyl)-1H-1,2,4-triazol-5-yl)-1H-pyrazolo[3,4-b]pyridine]	≤ 0.1 µM	41.6 nM	2.52
N#Cc1n[nH]c(-c2nn(Cc3ccccc3F)c3ncccc23)n1 [Compound I-41]	≤ 0.1 µM	26.6 nM	0.36
Fc1ccccc1Cc1nn(-c2nc(C(F)(F)F)n[nH]2)c2cccnc12 [Compound I-31, 3-(2-Fluorobenzyl)-1-(3-(trifluoromethyl)-1H-1,2,4-triazol-5-yl)-1H-pyrazolo[4,3-b]pyridine]	≤ 0.1 µM	66.6 nM	3.84
FC(F)(F)c1n[nH]c(-c2nn(Cc3ccccc3)c3ncccc23)n1 [Compound I-49, 1-Benzyl-3-(3-(trifluoromethyl)-1H-1,2,4-triazol-5-yl)-1H-pyrazolo[3,4-b]pyridine]	≤ 0.1 µM	172 nM	1.57
FC(F)(F)c1n[nH]c(-c2nn(CCC(F)(F)C(F)(F)F)c3ncccc23)n1 [Compound I-2, 1-(3,3,4,4,4-pentafluorobutyl)-3-(3-(trifluoromethyl)-1H-1,2,4-triazol-5-yl)-1H-pyrazolo[3,4-b]pyridine]	≤ 0.1 µM	16.6 nM	0.24
FC(F)(F)c1n[nH]c(-c2nn(Cc3cncnc3)c3ncccc23)n1 [Compound I-4, 1-(Pyrimidin-5-ylmethyl)-3-(3-(trifluoromethyl)-1H-1,2,4-triazol-5-yl)-1H-pyrazolo[3,4-b]pyridine]	≤ 0.1 µM	79.5 nM	1.98

The remaining lines, values ahead:

EC50 (sGC)	concentration at 1 h [1]	Kp uu at 1 h [1]	SMILES
≤ 0.1 µM	31.5 nM	2.41	Fc1cccc(Cn2nc(-c3nc(Cl)n[nH]3)c3cccnc32)c1F [Compound I-86, 3-(3-Chloro-1H-1,2,4-triazol-5-yl)-1-(2,3-difluorobenzyl)-1H-pyrazolo[3,4-b]pyridine]
≤ 0.1 µM	17.4 nM	2.2	Fc1cccc(Cc2nn(-c3nc(C(F)(F)F)n[nH]3)c3cccnc23)c1F [Compound I-105, 3-(2,3-Difluorobenzyl)-1-(3-(trifluoromethyl)-1H-1,2,4-triazol-5-yl)-1H-pyrazolo[4,3-b]pyridine]
≤ 0.1 µM	21.5 nM	1.54	Fc1ccccc1Cn1nc(-c2nc(C3CC3(F)F)n[nH]2)c2cccnc21 (stereo not drawn) [Compound I-96, 3-(3-(2,2-Difluorocyclopropyl)-1H-1,2,4-triazol-5-yl)-1-(2-fluorobenzyl)-1H-pyrazolo[3,4-b]pyridine]
≤ 0.1 µM	104 nM	2.81	Fc1ccccc1Cc1nn(-c2nc(C(F)F)n[nH]2)c2cccnc12 [Compound I-101, 1-(3-(Difluoromethyl)-1H-1,2,4-triazol-5-yl)-3-(2-fluorobenzyl)-1H-pyrazolo[4,3-b]pyridine]
≤ 0.1 µM	13.1 nM	0.54	OCc1n[nH]c(-c2nn(Cc3ccccc3F)c3ncccc23)n1 [Compound I-64, (5-(1-(2-fluorobenzyl)-1H-pyrazolo[3,4-b]pyridin-3-yl)-1H-1,2,4-triazol-3-yl)methanol]
